Source: PubChem BioAssay (NCI)
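Cultured in 96-well plates, cells were exposed to test compound for 48 hours across five concentrations. Definition used: TGI = concentration required for complete inhibition of growth.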

Experiments:
Test in all cases: NCI tumour cell line growth inhibition, 48 h
[1] = system: SF-268 CNS
[2] = system: M19-MEL melanoma
[3] = system: DMS 114 small cell lung
[4] = system: OVCAR-3 ovarian
[5] = system: HCC-2998 colon
[6] = system: SW-620 colon
[7] = system: COLO 205 colon
[8] = system: SF-295 CNS
[9] = system: SNB-19 CNS
[10] = system: K-562 leukemia
[11] = system: NCI-H522 lung
[12] = system: U251 CNS
[13] = system: UO-31 renal
[14] = system: EKVX NSCLC
[15] = system: CCRF-CEM leukemia
[16] = system: SR leukemia
[17] = system: ACHN renal
[18] = system: HOP-62 NSCLC
[19] = system: SNB-75 CNS
[20] = system: SK-OV-3 ovarian
[21] = system: SK-MEL-28 melanoma
[22] = system: MOLT-4 leukemia
[23] = system: HT29 colon
[24] = system: KM20L2 colon
[25] = system: UACC-62 melanoma
[26] = system: RPMI-8226 leukemia
[27] = system: HL-60(TB) leukemia
[28] = system: IGROV1 ovarian
[29] = system: LXFL 529 NSCLC
[30] = system: RXF-631 renal
[31] = system: OVCAR-8 ovarian
[32] = system: A549 NSCLC
[33] = system: HCT-15 colon
[34] = system: 786-0 renal
[35] = system: M14 melanoma
[36] = system: OVCAR-5 ovarian
[37] = system: HOP-92 NSCLC
[38] = system: OVCAR-4 ovarian
[39] = system: NCI-H23 lung
[40] = system: SK-MEL-2 melanoma
[41] = system: SNB-78 CNS
[42] = system: MALME-3M melanoma
[43] = system: NCI-H460 lung
[44] = system: TK-10 renal
[45] = system: KM12 colon
[46] = system: XF 498 CNS
[47] = system: SK-MEL-5 melanoma
[48] = system: DMS 273 small cell lung
[49] = system: HCT-116 colon
[50] = system: NCI-H226 lung
[51] = system: RXF 393 renal
[52] = system: UACC-257 melanoma
[53] = system: LOX IMVI melanoma
[54] = system: SF-539 CNS
[55] = system: SN12C renal
[56] = system: CAKI-1 renal
[57] = system: DLD-1 colon
[58] = system: A498 renal

CC1=C(C)C(=O)C2=C(OCCCO2)C1=O
TGI [1]: 33.2 µM | TGI [2]: 33.3 µM | TGI [3]: 33.5 µM | TGI [4]: 32 µM | TGI [5]: > 100 µM | TGI [6]: 31.2 µM | TGI [7]: > 100 µM | TGI [8]: 70.9 µM | TGI [9]: > 100 µM | TGI [10]: 54 µM | TGI [11]: 33.1 µM | TGI [12]: > 100 µM | TGI [13]: 30.1 µM | TGI [14]: 31 µM | TGI [15]: 8.11 µM | TGI [16]: 44.9 µM | TGI [17]: 32.4 µM | TGI [18]: > 100 µM | TGI [19]: 51.7 µM | TGI [20]: > 100 µM | TGI [21]: > 100 µM | TGI [22]: 5.33 µM | TGI [23]: 46.3 µM | TGI [24]: > 100 µM | TGI [25]: 32.7 µM | TGI [26]: 36.1 µM | TGI [27]: 19 µM | TGI [28]: 33.3 µM | TGI [29]: 31.9 µM | TGI [30]: 31.5 µM | TGI [31]: 32.9 µM | TGI [32]: > 100 µM | TGI [33]: > 100 µM | TGI [34]: 33.3 µM | TGI [35]: 30.7 µM

Clc1ccccc1C(n1ncc2ccccc21)n1ncc2ccccc21
TGI [1]: > 100 µM | TGI [2]: > 100 µM | TGI [36]: > 100 µM | TGI [37]: > 100 µM | TGI [3]: > 100 µM | TGI [4]: > 100 µM | TGI [5]: > 100 µM | TGI [6]: > 100 µM | TGI [38]: > 100 µM | TGI [8]: > 100 µM | TGI [39]: > 100 µM | TGI [9]: > 100 µM | TGI [10]: > 100 µM | TGI [40]: > 100 µM | TGI [41]: > 100 µM | TGI [11]: > 100 µM | TGI [12]: > 100 µM | TGI [42]: > 100 µM | TGI [13]: 94.4 µM | TGI [15]: > 100 µM | TGI [43]: > 100 µM | TGI [16]: > 100 µM | TGI [17]: > 100 µM | TGI [18]: > 100 µM | TGI [19]: 65.6 µM | TGI [20]: > 10 µM | TGI [21]: > 100 µM | TGI [44]: > 100 µM | TGI [45]: > 100 µM | TGI [22]: > 100 µM | TGI [23]: > 100 µM | TGI [46]: > 100 µM | TGI [47]: 57.7 µM | TGI [48]: > 100 µM | TGI [25]: > 10 µM | TGI [49]: > 100 µM | TGI [50]: > 100 µM | TGI [26]: 63.3 µM | TGI [51]: > 100 µM | TGI [27]: 50.1 µM | TGI [52]: > 100 µM | TGI [53]: > 100 µM | TGI [28]: > 10 µM | TGI [29]: > 100 µM | TGI [31]: > 100 µM | TGI [54]: > 100 µM | TGI [55]: > 100 µM | TGI [56]: > 100 µM | TGI [33]: > 100 µM | TGI [57]: > 100 µM | TGI [34]: > 100 µM | TGI [35]: > 100 µM | TGI [58]: > 100 µM
